Reference: the supplement of paper PMC10307832

How the values were obtained:
Assay in all cases: relative viability (nuclei count vs DMSO), 5 days (fraction); higher = more cells survive
[1] = compound: COC1=CC(c2cc3ccccc3[nH]2)=N/C1=C\c1[nH]c(C)cc1C [Obatoclax] + CC1(C)CCC(c2ccc(Cl)cc2)=C(CN2CCN(c3ccc(C(=O)NS(=O)(=O)c4ccc(N[C@H](CCN5CCOCC5)CSc5ccccc5)c(S(=O)(=O)C(F)(F)F)c4)cc3)CC2)C1 [Navitoclax] (partner 0.5 µM)
Method in brief: (§1)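 After 5 days of treatment, lung cancer cells in 1536-well plates were fixed and stained in a single step (final 0.05% Triton X-100, 1% formaldehyde, 1 ug/ml Hoechst) and their nuclei counted on 4× images. Treatment had been applied by pin tool the day after seeding as one drug alone or as a fixed anchor-drug dose with five library-drug doses (not always all listed) in √10 steps. Relative viability is the nuclei count of treated wells divided by that of vehicle wells, and values are medians of duplicate plates.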

[2] = compound: CC(C)C[C@H](NC(=O)[C@H](Cc1ccccc1)NC(=O)c1cnccn1)B(O)O [Bortezomib] + Nc1ncn([C@H]2C[C@H](O)[C@@H](CO)O2)c(=O)n1 [Decitabine] (partner 2 µM)
Method in brief: as §1

[3] = compound: CC(C)C[C@H](NC(=O)[C@H](Cc1ccccc1)NC(=O)c1cnccn1)B(O)O [Bortezomib] + COc1cc2c(Oc3ccc(NC(=O)C4(C(=O)Nc5ccc(F)cc5)CC4)cc3F)ccnc2cc1OCCCN1CCOCC1 [Foretinib] (partner 0.25 µM)
Method in brief: as §1

[4] = compound: CC1=CC(=NN1)NC2=CC(=NC(=N2)/C=C/C3=CC=CC=C3)N4CCN(CC4)C + CC1(C)CCC(c2ccc(Cl)cc2)=C(CN2CCN(c3ccc(C(=O)NS(=O)(=O)c4ccc(N[C@H](CCN5CCOCC5)CSc5ccccc5)c(S(=O)(=O)C(F)(F)F)c4)cc3)CC2)C1 [Navitoclax] (partner 0.5 µM)
Method in brief: as §1

Cell Line	relative viability ([1]; first compound 0.01 µM)	relative viability ([1]; first compound 0.03162 µM)	relative viability ([1]; first compound 0.1 µM)	relative viability ([1]; first compound 0.3162 µM)	relative viability ([1]; first compound 1 µM)	relative viability ([2]; first compound 0.0002 µM)	relative viability ([2]; first compound 0.000632 µM)	relative viability ([2]; first compound 0.002 µM)	relative viability ([2]; first compound 0.006325 µM)	relative viability ([2]; first compound 0.02 µM)	relative viability ([3]; first compound 0.0002 µM)	relative viability ([3]; first compound 0.000632 µM)	relative viability ([3]; first compound 0.002 µM)	relative viability ([3]; first compound 0.006325 µM)	relative viability ([3]; first compound 0.02 µM)	relative viability ([4]; first compound 0.08 µM)	relative viability ([4]; first compound 0.253 µM)	relative viability ([4]; first compound 0.8 µM)	relative viability ([4]; first compound 2.53 µM)	relative viability ([4]; first compound 8 µM)
LOU-NH91	0.761	0.739	0.556	0.549	0.364	0.805	0.82	0.41	0.373	0.322	0.863	0.867	0.328	0.258	0.243	0.706	0.729	0.697	0.387	0.201
LU99A	0.855	0.788	0.831	0.501	0.545	0.841	0.88	0.885	0.825	0.202	0.887	0.721	0.812	0.755	0.227	0.766	0.781	0.57	0.25	0.125
LXF-289	0.912	0.883	0.926	0.905	0.96	0.364	0.384	0.394	0.196	0.112	0.98	0.964	0.991	0.127	0.0671	0.924	0.966	0.922	0.772	0.325
NCI-H23	0.907	0.733	0.847	0.537	0.813	0.288		0.312	0.162	0.163	0.895	0.972	0.861	0.166	0.14	0.79	0.909	0.867	0.364	0.15
NCI-H322M	1.16	1.26	1.29	1.14	1.39	0.783	0.671	0.705	0.6	0.45	0.894		0.773	0.654	0.327	1.18	1.41	1.09	0.802	0.318
NCI-H441	0.775	0.535	0.832	0.546	0.259	0.235	0.274	0.207	0.119	0.109	0.801	0.987	0.563	0.188	0.168	0.704	0.503	0.302	0.187	0.122
NCI-H460	1.08	1.2	1.12	0.034	0.0115	0.479	0.471	0.56	0.296	0.0215	0.983	1.03	1.13	0.115	0.0294	1.07	1.58	0.952	0.0095	0.0091
NCI-H520	1.1	1.16	1.07	0.795	0.288	0.43	0.549	0.424	0.174	0.155	0.871	0.773	0.58	0.184	0.148	0.985	1.12	0.889	0.198	0.127
NCI-H596	0.898	0.74	0.775	0.519	0.583	1.01	0.999	0.95	0.251	0.208	0.88	0.892	0.613	0.17	0.138	0.91	1.04	0.705	0.489	0.27
NCI-H647	1.11	0.974	0.633	0.477	0.229	0.483	0.404	0.38	0.0562	0.0417	0.904	1.3	1.25	0.0379	0.0377	1.05	1.38	1.07	0.0912	0.0329
NCI-H727	0.416	0.487	0.409	0.451	0.262	0.993	1.09	0.875	0.95	0.834	0.809	0.694	0.93	0.603	0.169	0.423	0.483	0.378	0.286	0.0872
NCI-H838	1.14	1.26	1.03	0.776	0.573	0.473	0.467	0.459	0.184	0.138	1	1	1.17	0.165	0.13	1.22	1.22	0.866	0.305	0.134
NCI-H1355	0.883	0.976	0.953	0.885	0.91	0.343	0.362	0.367	0.177	0.139	0.944	0.983	0.998	0.155	0.14	0.878	0.961	0.974	0.701	0.386
NCI-H1395	1.2	1.13	0.949	0.865	0.69	0.774	0.702	0.431	0.287	0.297	1.01	0.927	0.759	0.341	0.328	1.32	1.27	1.59	0.676	0.308
NCI-H1437	1.03	1.1	1.08	1.1	0.746	0.585	0.585	0.595	0.214	0.223	1.31	1.24	1.32	0.185	0.149	1.06	1.12	1.03	0.816	0.175
NCI-H1650	1.03	1.08	1.18	0.986	0.239	0.488	0.484	0.182	0.137	0.128	1.19	1.15	0.223	0.16	0.164	1.28	1.43	0.902	0.358	0.107

Cell Line	relative viability ([1]; first compound 0.01 µM)	relative viability ([1]; first compound 0.03162 µM)	relative viability ([1]; first compound 0.1 µM)	relative viability ([1]; first compound 0.3162 µM)	relative viability ([1]; first compound 1 µM)	relative viability ([2]; first compound 0.0002 µM)	relative viability ([2]; first compound 0.000632 µM)	relative viability ([2]; first compound 0.002 µM)	relative viability ([2]; first compound 0.006325 µM)	relative viability ([2]; first compound 0.02 µM)	relative viability ([3]; first compound 0.0002 µM)	relative viability ([3]; first compound 0.000632 µM)	relative viability ([3]; first compound 0.002 µM)	relative viability ([3]; first compound 0.006325 µM)	relative viability ([3]; first compound 0.02 µM)	relative viability ([4]; first compound 0.08 µM)	relative viability ([4]; first compound 0.253 µM)	relative viability ([4]; first compound 0.8 µM)	relative viability ([4]; first compound 2.53 µM)	relative viability ([4]; first compound 8 µM)
NCI-H1651	1.04	0.991	0.968	0.507	0.224	0.659	0.732	0.619	0.665	0.172	0.788	0.772	0.423	0.101	0.112	0.974	1.11	0.837	0.424	0.129
NCI-H1666	0.839	1.31	0.865	0.388	0.277	0.782	0.839	0.728	0.646	0.477	0.868	0.945	0.884	0.289	0.316	0.951	0.898	0.906	0.64	0.222
NCI-H1734	0.745	0.841		0.723	0.668	0.552	0.503	0.462	0.12	0.0968	0.786	0.9	0.759	0.176	0.109	0.837	0.81	0.8	0.331	0.108
NCI-H1755	0.974	0.966	1	0.951	1.04	0.699	0.716	0.734	0.452	0.237	0.939	0.972	0.868	0.494	0.192	0.984	0.98	0.974	0.504	0.155
NCI-H1793	0.337	0.291	0.51	0.422	0.47	0.492		0.507	0.334	0.146	0.611	0.617	0.666	0.512	0.155	0.516	0.446	0.466	0.156	0.131
NCI-H1915	0.766	0.638	0.711	0.76	0.785	0.266	0.256	0.254	0.14	0.059	1.05	1.12	1.1	0.112	0.0806	0.762	0.8	0.779	0.539	0.213
NCI-H1944	0.97	1.01	1.05	1.05	1.08	0.414	0.429	0.461	0.402	0.248	0.791	0.818	0.87	0.724	0.199	1.04	1.08	1.03	0.866	0.266
NCI-H1975	1.18	1.1	0.975	0.943	1.01	0.411	0.371	0.176	0.126	0.115	0.927	0.926	0.132	0.104	0.107	0.977	1.12	1.08	0.616	0.134
NCI-H1993	1.04	0.816	1.03	0.867	0.982	0.634	0.717	0.622	0.319	0.374	0.802	0.755	0.912	0.648	0.479	0.94		0.78	0.576	0.489
NCI-H2009	1.13	1.23	1.15	1.17	0.258	0.392	0.431	0.388	0.101	0.0757	1.14	1.21	1.23	0.237	0.0866	1.19	1.09	1.13	1.12	0.212
NCI-H2023	0.96	1.02	0.911	0.906	0.612	0.216	0.236	0.245	0.122	0.0571	0.911	0.802	1.06	0.282	0.0757	0.952	1.09	0.874	0.387	0.069
NCI-H2085	1.14	1.11	1.13	0.704	0.728	0.588	0.544	0.593	0.298	0.246	1.04	1.08	1.05	0.273	0.199	1.24	1.19	0.994	0.489	0.315
NCI-H2087	0.9	0.857	0.866	0.438	0.196	0.233	0.265	0.141	0.0621	0.0401	0.972	0.975	0.794	0.0688	0.059	0.974	0.923	1.11	0.247	0.122
NCI-H2126	0.837	0.839	0.875	0.887	0.908	0.603	0.597	0.535	0.552	0.197	1.08	1.03	1.12	1.02	0.21	0.839	0.871	0.806	0.772	0.478
NCI-H2170	0.618	0.554	0.606	0.609	0.577	0.462	0.465	0.444	0.377	0.126	1.02	0.952	1.03	0.596	0.167	0.588	0.574	0.619	0.248	0.159
